The source of these data is patent US20200113853A1, “GAMMA-HYDROXYBUTYRATE COMPOSITIONS AND THEIR USE FOR THE TREATMENT OF DISORDERS” (Jazz Pharmaceuticals Ireland Limited, priority 2017, published 2020).

Data set [1] in a line: Maximum solubility of GHB as a function of pH of the aqueous medium. Format: physicochemical. Here is the method:
It will be understood that the maximum solubility of GHB is affected by the pH of the aqueous medium. For example, at about pH 4, the maximum amount of Na⋅GHB that can be dissolved is about 450 mg/mL.

For data set [2] the following is noted: 2.25 g and 4.45 g doses, relative to IV administration; cited from earlier work.
The conditions of data set [3]: generally considered; Yu et al.; cited from earlier work.

With `O=C([O-])CCCO.[Na+]` [sodium oxybate, sodium gamma-hydroxybutyrate], in data set [1] (at about pH 4, aqueous medium), the “maximum amount that can be dissolved” value is on record as “about 450 mg/mL”. Moreover, the absolute bioavailability in data set [2] was 88%. The solubility class result in data set [3] was “high solubility”.

For `O=C(O)CCCO` [GHB, gamma-hydroxybutyrate], in data set [1] (750 mg/mL), the “minimal pH that will dissolve 750 mg/mL GHB” value is listed as roughly 6.8.
